This passage reports TGI results from PubChem BioAssay (NCI).

Some test systems named below: KM12 colon; LOX IMVI melanoma; NCI-H23 lung; SF-268 CNS; SF-295 CNS; IGROV1 ovarian; SK-OV-3 ovarian; HS 578T breast; HOP-62 NSCLC; UACC-62 melanoma; OVCAR-4 ovarian; HL-60(TB) leukemia; MDA-N; A549 NSCLC; RPMI-8226 leukemia; NCI-H460 lung.
Common to all, as to assay: NCI anticancer screen, dose series, 48 h

The structures appear in SMILES notation.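 Compound exposure: 48 hours, 5 concentrations, 96-well plates. At the TGI there is no net growth.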 Where only a bound is given, the exact number is not on record here.

In the case of `O=S(=O)(O)C(=Nc1cccc(Cc2ccccc2)c1)Nc1cccc(Cc2ccccc2)c1`, the TGI in the test on KM12 colon worked out at 31.5 µM; in the test on LOX IMVI melanoma, 26.6 µM; in the test with NCI-H23 lung, 31.9 µM; in the test on SF-268 CNS it was 33.6 µM; with SF-295 CNS, 34.3 µM; in the test on IGROV1 ovarian it was 31.3 µM. Moreover, the TGI with SK-OV-3 ovarian is 36.9 µM; in the test with HS 578T breast, 45.5 µM; in the test with HOP-62 NSCLC it was above 100 µM; with UACC-62 melanoma, 30.9 µM; with OVCAR-4 ovarian, 41 µM; in the test with HL-60(TB) leukemia, 95.7 µM. Further, the TGI in the test on MDA-N stood at 47.2 µM; in the test with A549 NSCLC, 51.9 µM; with RPMI-8226 leukemia, 83.1 µM.

Turning to `CCCCCCC(=O)O[C@H]1CC[C@H]2[C@@H]3CCC4C/C(=N/NC(=O)c5cccc6c(=O)c7ccccc7[nH]c56)C=C(C)[C@]4(C)[C@H]3CC[C@]12C` (stereo not given in full), the TGI with KM12 colon, in the test with LOX IMVI melanoma, in the test on NCI-H23 lung, in the test with SF-268 CNS, in the test with SF-295 CNS and in the test on IGROV1 ovarian was above 25 µM each time. Moreover, the TGI with SK-OV-3 ovarian, in the test on HS 578T breast, in the test with HOP-62 NSCLC, with UACC-62 melanoma, in the test with OVCAR-4 ovarian and in the test on HL-60(TB) leukemia was above 25 µM each time. Also, the TGI in the test on MDA-N, with A549 NSCLC and in the test on RPMI-8226 leukemia was above 25 µM throughout.

On to `C=CCC1(OC(C)=O)C2OC(=O)C1(O)OCC2O` (stereo not given), for which the TGI with NCI-H460 lung, in the test with KM12 colon, in the test with LOX IMVI melanoma, with NCI-H23 lung, in the test on SF-268 CNS and in the test with SF-295 CNS was above 100 µM each time. Further, the TGI in the test with IGROV1 ovarian, in the test with SK-OV-3 ovarian, with HS 578T breast, with HOP-62 NSCLC, with UACC-62 melanoma and with OVCAR-4 ovarian was above 100 µM throughout. Also, the TGI with HL-60(TB) leukemia, in the test with MDA-N, in the test on A549 NSCLC and with RPMI-8226 leukemia was above 100 µM throughout.

Take `CC(C)=CCC/C(=C/CC/C(=C\CCc1ccoc1)C(=O)O)C(=O)O`: the TGI in the test with KM12 colon, in the test with LOX IMVI melanoma, in the test on NCI-H23 lung, in the test with SF-268 CNS, with SF-295 CNS and in the test on IGROV1 ovarian was above 100 µM each time. Also, the TGI in the test on SK-OV-3 ovarian, in the test with HS 578T breast, in the test on HOP-62 NSCLC, in the test with UACC-62 melanoma, in the test with OVCAR-4 ovarian and with HL-60(TB) leukemia was above 100 µM throughout. Also, the TGI in the test on MDA-N, with A549 NSCLC and in the test with RPMI-8226 leukemia was above 100 µM throughout.

As to `Clc1cc(Cl)cc(C=NC23CC4CC(CC(C4)C2)C3)c1`, the TGI with NCI-H460 lung, with KM12 colon, with LOX IMVI melanoma, in the test with NCI-H23 lung, with SF-268 CNS and in the test on SF-295 CNS was above 10 µM throughout. In addition, the TGI in the test with IGROV1 ovarian, in the test on SK-OV-3 ovarian, in the test on HS 578T breast, in the test on HOP-62 NSCLC, in the test with UACC-62 melanoma and in the test with OVCAR-4 ovarian was above 10 µM in each case. The TGI in the test with HL-60(TB) leukemia, with MDA-N, in the test on A549 NSCLC and in the test with RPMI-8226 leukemia was above 10 µM throughout.

In the case of `C[C@@H](c1ccccc1)N1CN(C(=O)OCc2ccccc2)C(C)(C)CC1=O`, the TGI in the test on NCI-H460 lung, with KM12 colon, with LOX IMVI melanoma, with NCI-H23 lung, in the test on SF-268 CNS and in the test on SF-295 CNS was above 100 µM in each case. The TGI with IGROV1 ovarian, in the test on SK-OV-3 ovarian, in the test on HS 578T breast, in the test on HOP-62 NSCLC, in the test on UACC-62 melanoma and with OVCAR-4 ovarian was above 100 µM throughout. In addition, the TGI in the test on HL-60(TB) leukemia, in the test with MDA-N, with A549 NSCLC and with RPMI-8226 leukemia was above 100 µM each time.

With `C=CCOC(=O)NC1C(OC(C)[C@@H](NC(=O)OCc2ccccc2)C(=O)OC(C)(C)C)OC(COC(C)=O)C(OC(C)=O)C1OC(C)=O` (stereo not given in full), the TGI in the test with NCI-H460 lung, in the test with KM12 colon, with LOX IMVI melanoma, in the test with NCI-H23 lung, in the test on SF-268 CNS and with SF-295 CNS was above 100 µM each time. Further, the TGI in the test on IGROV1 ovarian, in the test with SK-OV-3 ovarian, in the test with HS 578T breast, in the test on HOP-62 NSCLC, with UACC-62 melanoma and in the test with OVCAR-4 ovarian was above 100 µM each time. The TGI in the test with HL-60(TB) leukemia, in the test on MDA-N, in the test with A549 NSCLC and with RPMI-8226 leukemia was above 100 µM throughout.

Regarding `CCOP(=O)(OCC)C(Nc1ccc(Br)cc1)c1cccc([N+](=O)[O-])c1` (stereo not given), the TGI with NCI-H460 lung came out at 29.3 µM; in the test on KM12 colon it was 32.1 µM; with LOX IMVI melanoma it was 23.3 µM; in the test with NCI-H23 lung, 53 µM; in the test on SF-268 CNS it was 43.6 µM; with SF-295 CNS, 28.3 µM. Further, the TGI in the test on IGROV1 ovarian is 76.5 µM; in the test on SK-OV-3 ovarian, 41.5 µM; with HS 578T breast it was 61.1 µM; in the test on HOP-62 NSCLC it was 39.8 µM; in the test on UACC-62 melanoma, 29.6 µM; in the test with OVCAR-4 ovarian, above 100 µM. Further, the TGI in the test with HL-60(TB) leukemia worked out at 55.1 µM; in the test on MDA-N, 37.2 µM; with A549 NSCLC, 34.7 µM; in the test on RPMI-8226 leukemia it was 98.2 µM.
